Measurements from patent US20230174649A1, “PHARMACEUTICAL COMPOSITIONS CONTAINING ANTI-CD47 ANTIBODIES” (I-MAB BIOPHARMA US LIMITED, priority 2020, published 2023).
Several values for one entry are separate records, joined by “and”; a condition that tells them apart may be missing. Identical values can stand only once.

Legend:
Type in all cases: cell-based, Human
macrophages = experiment: Macrophage Viability Assay (CellTiter-Glo); conditions: for Macrophage viability (CellTiter-Glo Luminescent Cell Viability Assay): 16 hours, three replicate lines
Procedure: Then, the monocytes isolated by MACS were subsequently cultured in fresh complete medium supplemented with recombinant human granulocyte-macrophage colony-stimulating factor GM-CSF (50 ng/ml) and human recombinant IL-4 (35 ng/ml) to activate differentiated macrophages. After 6 days of culture (on day 7), cells were harvested, pooled together and counted for next use.
The cells from Example 2 were plated into a 96-well flat bottom plate at a density of 0.05×10^6 cells/well. After 2 hours of incubation, the macrophages were well attached to the plate. Then selected small molecule therapeutic agents were added to the well and cocultured for 16 hours. On day 8, macrophage viability was assessed by CellTiter-Glo® Luminescent Cell Viability Assay, according to the manufacture's instruction.

CD47 = experiment: FACS analysis of expression level of CD47 on tumor cell surface; conditions: Toledo cells; for Mean Fluorescence Intensity (MFI) CD47: 12 hours
Procedure: (§1) For FACS analysis, on the day of analysis (day 1), Toledo cells were seeded into 96 well plate and cultured at a density of 0.2×10^6 cells/well. Then the cells were treated with the selected small molecule therapeutic agents for 12 hours.
(§2) On day 2, cells were harvested, washed twice and then re-suspended in 100 uL FACS buffer subject to FACS analysis. For detection of the expression of calreticulin and CD47, cells were incubated with anti-calreticulin antibody and commercially available anti-CD47 antibody (BD Biosciences, Catalog number: 561249) in dark at 4° C. for 30 mins.
(§3) Then, the cells were subject to FACS analysis. Data was acquired and analyzed.

Calreticulin = experiment: FACS analysis of expression level of calreticulin on tumor cell surface; conditions: Toledo cells; for Mean Fluorescence Intensity (MFI) Calreticulin: 12 hours
Procedure: as §1, §2, §3

Toledo Cells = experiment: FACS-based phagocytosis assay, macrophages cocultured with Toledo cells
Procedure: FACS-based phagocytosis assays were performed to evaluate the phagocytic abilities of macrophages.
Toledo Cells (a tumor cell line, as a target) were labelled with CellTrace™ Far Red and plated into 96-well plate at a density of 0.15×10^6 cells/well for 12 hours. The Macrophages were prepared as discussed above and then labelled with CellTrace Violet. Next, the macrophages were added into the plate as an effector at an effector:target (Toledo) ratio of 1:3, giving a final density of macrophages at 0.05×10^6 cells/well. Macrophages and tumor cells were cocultured for 2-6 h at 37° C. in the presence of the indicated treatments (small molecule therapeutic agents, CD47 antibody, CD20 antibody or combinations). The incubation time depending on the phagocytosis rate, expecting phagocytosis of 5-20% cells.
Then, cells were acquired and data were analyzed.

SMILES: Nc1cccc2c1CN(C1CCC(=O)NC1=O)C2=O (centres unmarked) [Lenalidomide]
- Macrophage viability (CellTiter-Glo Luminescent Cell Viability Assay) (macrophages; Cpd 0.002 uM): 5972 and 5872 and 5776
- Macrophage viability (CellTiter-Glo Luminescent Cell Viability Assay) (macrophages; Cpd 0.008 uM): 5992 and 5996 and 6180
- Macrophage viability (CellTiter-Glo Luminescent Cell Viability Assay) (macrophages; Cpd 0.04 uM): 6152 and 6132 and 5892
- Macrophage viability (CellTiter-Glo Luminescent Cell Viability Assay) (macrophages; Cpd 0.2 uM): 6216 and 6088 and 6456
- Macrophage viability (CellTiter-Glo Luminescent Cell Viability Assay) (macrophages; Cpd 1 uM): 6016 and 6108 and 6088
- Macrophage viability (CellTiter-Glo Luminescent Cell Viability Assay) (macrophages; Cpd 5 uM): 5840 and 6236 and 6108
- Macrophage viability (CellTiter-Glo Luminescent Cell Viability Assay) (macrophages; Cpd 25 uM): 5432 and 5752 and 5744
- Macrophage viability (CellTiter-Glo Luminescent Cell Viability Assay) (macrophages; Cpd 50 uM): 5208 and 5124 and 5644
- toxicity to macrophages (macrophages; dose as high as 50 μM): showed toxicity
- toxicity to macrophages (macrophages; dose lower than 10 μM): little toxic
- Mean Fluorescence Intensity (MFI) CD47 (CD47; 0.008 uM): 8706
- Mean Fluorescence Intensity (MFI) CD47 (CD47; 0.04 uM): 8881
- Mean Fluorescence Intensity (MFI) CD47 (CD47; 0.2 uM): 8730
- Mean Fluorescence Intensity (MFI) CD47 (CD47; 1 uM): 8985
- Mean Fluorescence Intensity (MFI) CD47 (CD47; 5 uM): 8443
- Mean Fluorescence Intensity (MFI) Calreticulin (Calreticulin; 0.008 uM): 69.3
- Mean Fluorescence Intensity (MFI) Calreticulin (Calreticulin; 0.04 uM): 70.1
- Mean Fluorescence Intensity (MFI) Calreticulin (Calreticulin; 0.2 uM): 73.4
- Mean Fluorescence Intensity (MFI) Calreticulin (Calreticulin; 1 uM): 75.6
- Mean Fluorescence Intensity (MFI) Calreticulin (Calreticulin; 5 uM): 75.2
- macrophage phagocytosis (untreated = 1.00) (Toledo Cells; Cpd 0.0016 uM, T4J = 0, R = 0): 1.02
- macrophage phagocytosis (untreated = 1.00) (Toledo Cells; Cpd 0.0016 uM, T4J = 0, R = 0.01 ug/ml): 1.46
- macrophage phagocytosis (untreated = 1.00) (Toledo Cells; Cpd 0.0016 uM, T4J = 0.1 ug/ml, R = 0): 2.48
- macrophage phagocytosis (untreated = 1.00) (Toledo Cells; Cpd 0.0016 uM, T4J = 0.1 ug/ml, R = 0.01 ug/ml): 3.10
- macrophage phagocytosis (untreated = 1.00) (Toledo Cells; Cpd 0.008 uM, T4J = 0, R = 0): 1.03
- macrophage phagocytosis (untreated = 1.00) (Toledo Cells; Cpd 0.008 uM, T4J = 0, R = 0.01 ug/ml): 1.47
- macrophage phagocytosis (untreated = 1.00) (Toledo Cells; Cpd 0.008 uM, T4J = 0.1 ug/ml, R = 0): 2.57
- macrophage phagocytosis (untreated = 1.00) (Toledo Cells; Cpd 0.008 uM, T4J = 0.1 ug/ml, R = 0.01 ug/ml): 3.04
- macrophage phagocytosis (untreated = 1.00) (Toledo Cells; Cpd 0.04 uM, T4J = 0, R = 0): 1.08
- macrophage phagocytosis (untreated = 1.00) (Toledo Cells; Cpd 0.04 uM, T4J = 0, R = 0.01 ug/ml): 1.46
- macrophage phagocytosis (untreated = 1.00) (Toledo Cells; Cpd 0.04 uM, T4J = 0.1 ug/ml, R = 0): 2.56
- macrophage phagocytosis (untreated = 1.00) (Toledo Cells; Cpd 0.04 uM, T4J = 0.1 ug/ml, R = 0.01 ug/ml): 3.06
- macrophage phagocytosis (untreated = 1.00) (Toledo Cells; Cpd 0.2 uM, T4J = 0, R = 0): 0.96
- macrophage phagocytosis (untreated = 1.00) (Toledo Cells; Cpd 0.2 uM, T4J = 0, R = 0.01 ug/ml): 1.51
- macrophage phagocytosis (untreated = 1.00) (Toledo Cells; Cpd 0.2 uM, T4J = 0.1 ug/ml, R = 0): 2.61
- macrophage phagocytosis (untreated = 1.00) (Toledo Cells; Cpd 0.2 uM, T4J = 0.1 ug/ml, R = 0.01 ug/ml): 3.04
- macrophage phagocytosis (untreated = 1.00) (Toledo Cells; Cpd 1 uM, T4J = 0, R = 0): 1.01
- macrophage phagocytosis (untreated = 1.00) (Toledo Cells; Cpd 1 uM, T4J = 0, R = 0.01 ug/ml): 1.47
- macrophage phagocytosis (untreated = 1.00) (Toledo Cells; Cpd 1 uM, T4J = 0.1 ug/ml, R = 0): 2.62
- macrophage phagocytosis (untreated = 1.00) (Toledo Cells; Cpd 1 uM, T4J = 0.1 ug/ml, R = 0.01 ug/ml): 3.07
- phagocytic ability of macrophages (Toledo Cells; triple combination: T4J, Rituximab and the small molecule): does not show the synergistic effects

SMILES: COc1c(OCCCN2CCOCC2)ccc2c1N=C(NC(=O)c1cnc(N)nc1)N1CCN=C21 [Copanlisib]
- Macrophage viability (CellTiter-Glo Luminescent Cell Viability Assay) (macrophages; Cpd 0.002 uM): 5856 and 5928 and 6000
- Macrophage viability (CellTiter-Glo Luminescent Cell Viability Assay) (macrophages; Cpd 0.008 uM): 5272 and 4772 and 5388
- Macrophage viability (CellTiter-Glo Luminescent Cell Viability Assay) (macrophages; Cpd 0.04 uM): 4856 and 5120 and 4872
- Macrophage viability (CellTiter-Glo Luminescent Cell Viability Assay) (macrophages; Cpd 0.2 uM): 4572 (2×) and 4928
- Macrophage viability (CellTiter-Glo Luminescent Cell Viability Assay) (macrophages; Cpd 1 uM): 4156 and 4492 and 4368
- Macrophage viability (CellTiter-Glo Luminescent Cell Viability Assay) (macrophages; Cpd 5 uM): 3780 and 4352 and 4196
- Macrophage viability (CellTiter-Glo Luminescent Cell Viability Assay) (macrophages; Cpd 25 uM): 4108 and 4176 and 4248
- Macrophage viability (CellTiter-Glo Luminescent Cell Viability Assay) (macrophages; Cpd 50 uM): 2748 and 3032 and 3028
- toxicity to macrophages (macrophages; dose of 0.1-50 μM): obvious toxicity
- effect on CD47 expression level (CD47): only slightly inhibited
- Mean Fluorescence Intensity (MFI) CD47 (CD47; 0.008 uM): 8024
- Mean Fluorescence Intensity (MFI) CD47 (CD47; 0.04 uM): 8243
- Mean Fluorescence Intensity (MFI) CD47 (CD47; 0.2 uM): 7844
- Mean Fluorescence Intensity (MFI) CD47 (CD47; 1 uM): 7097
- Mean Fluorescence Intensity (MFI) CD47 (CD47; 5 uM): 6803
- effect on expression level of Calreticulin (Calreticulin): only slightly increased
- Mean Fluorescence Intensity (MFI) Calreticulin (Calreticulin; 0.008 uM): 69.8
- Mean Fluorescence Intensity (MFI) Calreticulin (Calreticulin; 0.04 uM): 77
- Mean Fluorescence Intensity (MFI) Calreticulin (Calreticulin; 0.2 uM): 79.4
- Mean Fluorescence Intensity (MFI) Calreticulin (Calreticulin; 1 uM): 106
- Mean Fluorescence Intensity (MFI) Calreticulin (Calreticulin; 5 uM): 142
